Test results reported in patent US20250115628A1, “FLUORINATED FLUOROPHORES” (HOWARD HUGHES MEDICAL INSTITUTE, priority 2023, published 2025).
Read-outs that look alike come from different tables or passages of the source.

Columns and labels:
[1] = General UV-vis and fluorescence spectroscopy; assay type: physicochemical; conditions: 10 mM HEPES, pH 7.3
Protocol: Spectroscopy was performed using 1^−cm path length, 3.5^−mL quartz cuvettes or 1^−cm path length, 1.4^−mL semi-micro quartz cuvettes from Starna Cells. All measurements were taken at ambient temperature (22±2° C.). Absorption spectra were recorded on a Cary Model 100 spectrometer (Agilent), and fluorescence spectra were recorded on a Cary Eclipse fluorometer (Varian). The spectra, maximum absorption wavelength (labs), extinction coefficient at λabs (8), and maximum emission wavelength (em) were measured in 10 mM HEPES, pH 7.3 buffer (rhodamines and Malachite Green derivative 49) or 0.1 M NaOH (fluoresceins); the reported values for e are averages (n=3). Normalized spectra are shown for clarity.

[2] = Quantum yield determination; assay type: physicochemical; conditions: 10 mM HEPES, pH 7.3
Protocol: All reported absolute fluorescence quantum yield values (Φf) were measured using a Quantaurus-QY spectrometer (model C11374, Hamamatsu). This instrument uses an integrating sphere to determine photons absorbed and emitted by a sample. Measurements were carried out using dilute samples (A<0.1), and self-absorption corrections were performed using the instrument software.^81

[3] = Determination of KL-Z (lactone-zwitterion equilibrium constant); assay type: physicochemical; design: key: KL-Z = (εdw/εmax)/(1−εdw/εmax); εdw measured in 1:1 dioxane/water; conditions: 1:1 dioxane:H2O
Protocol: KL-Z was calculated using the following equation:^16, 18 KL-Z=(εdw/εmax)/(1−εdw/εmax). εdw is the extinction coefficient of the dyes in a 1:1 (v/v) dioxane/water solvent mixture; this dioxane/water mixture was chosen to give the maximum spread of KL-Z values across all classes of rhodamines.^18 εmax refers to the maximal extinction coefficients measured in different solvent mixtures empirically determined depending on dye type: 0.1% v/v trifluoroacetic acid in ethanol for 18, 20, 29, 34, 36, 70-72, 81-83, 93-95, 99-102, and 104; 0.1% v/v trifluoroacetic acid in 2,2,2^−trifluoroethanol for all other rhodamine variants. A accurate determination of low KL-Z values is complicated by the relatively poor sensitivity of absorbance measurements.

[4] = rhodamine derivatives; 10 mM HEPES, pH 7.3; data from the inventors' published work; cited from earlier work

ε ([1]; rhodamine derivatives) | λabs ([1]; rhodamine derivatives) [nm] | λem ([1]; rhodamine derivatives) [nm] | Φf ([2]; rhodamine derivatives) | KL-Z ([3]; rhodamine derivatives) | Compound | ε ([1]; quinolinyl rhodamines) | λabs ([1]; quinolinyl rhodamines) [nm] | λem ([1]; quinolinyl rhodamines) [nm] | Φf ([2]; quinolinyl rhodamines) | KL-Z ([3]; quinolinyl rhodamines) | λabs [4] [nm]
– | – | – | – | – | CC1CC(C)(C)Nc2cc3c(cc21)C(c1ccccc1C(=O)O)=c1cc2c(cc1[Si]3(C)C)=NC(C)(C)CC2C (stereo not drawn) [compound 100, 2^−(2,2,4,8,10,10,13,13-Octamethyl-2,3,4,8,9,10,11,13-octahydrosilino[3,2^−g:5,6^−g]diquinolin-6^−ylium-6(1H)-yl)-benzoate] | 10,400 M^−1cm^−1 | 638 | 655 | 0.34 | 0.0220 | –
– | – | – | – | – | CC1=CC(C)(C)N(C)c2cc3c(cc21)C(c1ccccc1C(=O)[O-])=c1cc2c(cc1[Si]3(C)C)=[N+](C)C(C)(C)C=C2C [compound 104, 2^−(1,2,2,4,8,10,10,11,13,13^−Decamethyl-2,10,11,13-tetrahydrosilino[3,2^−g:5,6^−g′]diquinolin-6^−ylium-6(1H)-yl)-benzoate] | 1,200 M^−1cm^−1 | 720 | 740 | – | 0.0045 | –
– | – | – | – | – | CC1CC(C)(C)Nc2cc3c(cc21)C(c1c(F)c(F)c(F)c(F)c1C(=O)O)=c1cc2c(cc1O3)=NC(C)(C)CC2C (mixture of isomers) [compound 18, JF563] | 125,000 M^−1cm^−1 | 563 | 581 | 0.73 | 15.3 | –
– | – | – | – | – | CC1=CC(C)(C)Nc2cc3c(cc21)C(c1c(F)c(F)c(F)c(F)c1C(=O)O)=c1cc2c(cc1[Si]3(C)C)=NC(C)(C)C=C2C [compound 36, 2,3,4,5^−Tetrafluoro-6^−(2,2,4,8,10,10,13,13^−octamethyl-2,10,11,13-tetrahydrosilino[3,2^−g:5,6^−g]diquinolin-6^−ylium-6(1H)-yl)benzoate] | 85,900 M^−1cm^−1 | 713 | 742 | – | 1.09 | –
124,000 M^−1cm^−1 | 621 | 638 | 0.37 | 10.8 | CCC1=CC2=C(c3c(F)c(F)c(F)c(F)c3C(=O)O)c3cc4c(cc3C(C)(C)C2=CC1=NC)NCCC4 [compound 47, 4,5,6,7^−Tetrafluoro-carbo-Q-rhodamine] | – | – | – | – | – | –
– | – | – | – | – | CC1=CC(C)(C)Nc2cc3[o+]c4cc5c(cc4c(-c4ccccc4C(=O)[O-])c3cc21)C(C)=CC(C)(C)N5 [compound 101, 2^−(2,2,4,8,10,10^−Hexamethyl-1,2,10,11^−tetrahydropyrano[3,2-g:5,6^−g′]diquinolin-13^−ium-6^−yl)benzoate] | 94,100 M^−1cm^−1 | 573 | 595 | 0.68 | 5.14 | –
110,000 M^−1cm^−1 | 597 | 616 | 0.67 | 13.4 | O=C([O-])c1c(F)c(F)c(F)c(F)c1C1=c2cc3c4c(c2Oc2c1cc1c5c2CCCN5CCC1)CCC[N+]=4CCC3 [compound 16, 4,5,6,7^−Tetrafluoro-rhodamine 101] | – | – | – | – | – | –
– | – | – | – | – | CC1CC(C)(C)Nc2cc3c(cc21)C(c1c(F)c(F)c(F)c(F)c1C(=O)O)=c1cc2c(cc1[Si]3(C)C)=NC(C)(C)CC2C (stereo not drawn) [compound 34, 2,3,4,5^−Tetrafluoro-6^−(2,2,4,8,10,10,13,13^−octamethyl-2,3,4,8,9,10,11,13^−octahydrosilino[3,2^−g:5,6^−g]diquin-olin-6^−ylium-6(1H)-yl)benzoate] | 129,000 M^−1cm^−1 | 660 | 676 | 0.28 | 1.90 | –
148,000 M^−1cm^−1 | 660 | 673 | 0.54 | 7.55 | CCc1cc2c(c3c1=[N+](C)CCC3)C(C)(C)c1c(cc3c4c1CCCN4CCC3)C=2c1c(F)c(F)c(F)c(F)c1C(=O)[O-] [compound 57, JF660] | – | – | – | – | – | –
– | – | – | – | – | CC1=CC(C)(C)N(C)c2cc3c(cc21)C(c1ccccc1C(=O)[O-])=c1cc2c(cc1O3)=[N+](C)C(C)(C)C=C2C [compound 103, 2^−(1,2,2,4,8,10,10,11-Octamethyl-1,2,10,11-tetrahydropyrano[3,2^−g:5,6^−g]diquinolin-13^−ium-6^−yl)benzoate] | 95,200 M^−1cm^−1 | 585 | 610 | 0.73 | 4.44 | –
2,700 M^−1cm^−1 | 645 | – | – | 0.344 | C=C/C=C(C=C)/[N+](C)=C1\C=CC2=C(c3c(F)c(F)c(F)c(F)c3C(=O)[O-])c3ccc(N(C)c4ccccc4)cc3C(C)(C)C2=C1 [compound 65, JQ645] | – | – | – | – | – | –
– | – | – | – | – | CC1=CC(C)(C)Nc2cc3[o+]c4cc5c(cc4c(-c4c(F)c(F)c(F)c(F)c4C(=O)[O-])c3cc21)C(C)=CC(C)(C)N5 [compound 20, 2,3,4,5^−Tetrafluoro-6^−(2,2,4,8,10,10^−hexamethyl-1,2,10,11-tetrahydropyrano[3,2^−g:5,6^−g]diquinolin-13^−ium-6^−yl)benzoate] | 117,000 M^−1cm^−1 | 596 | 614 | 0.64 | 7.65 | –
137,000 M^−1cm^−1 | 657 | 672 | 0.50 | 4.97 | CCc1cc2c(c3c1=[N+](C)CCC3)C(C)(C)c1cc3c(cc1C=2c1c(F)c(F)c(F)c(F)c1C(=O)[O-])C(C)CC(C)(C)N3CC (stereo not drawn) [compound 59, JF657] | – | – | – | – | – | –
– | – | – | – | – | CC1=CC(C)(C)N(C)c2cc3c(cc21)C(c1c(F)c(F)c(F)c(F)c1C(=O)[O-])=c1cc2c(cc1[Si]3(C)C)=[N+](C)C(C)(C)C=C2C [compound 38, 2^−(1,2,2,4,8,10,10,11,13,13^−Decamethyl-2,10,11,13-tetrahydrosilino[3,2^−g:5,6^−g]diquinolin-6^−ylium-6(1H)-yl)-3,4,5,6^−tetrafluorobenzoate] | 5,700 M^−1cm^−1 | 754 | 774 | – | 0.3251 | –
96,400 M^−1cm^−1 | 575 | 597 | 0.53 | 0.832 | CC1(C)C2=CC(=N)C=CC2=C(c2c(F)c(F)c(F)c(F)c2C(=O)O)c2ccc(N)cc21 [compound 71, 4,5,6,7^−Tetrafluoro-carborhodamine 110] | – | – | – | – | – | –
– | – | – | – | – | CC1CC(C)(C)Nc2cc3[o+]c4cc5c(cc4c(-c4ccccc4C(=O)[O-])c3cc21)C(C)CC(C)(C)N5 (stereo not drawn) [compound 99, 2^−(2,2,4,8,10,10^−Hexamethyl-1,2,3,4,8,9,10,11-octahydropyrano[3,2^−g:5,6^−g′]diquinolin-13^−ium-6^−yl)benzoate] | 112,000 M^−1cm^−1 | 542 | 564 | 0.83 | 6.30 | –
– | – | – | – | – | Si-Q-rhodamine [compound 95] | – | – | – | – | – | 637
– | – | – | – | – | CC1=CC(C)(C)Nc2cc3c(cc21)C(c1ccccc1C(=O)O)=c1cc2c(cc1[Si]3(C)C)=NC(C)(C)C=C2C [compound 102, 2^−(2,2,4,8,10,10,13,13-Octamethyl-2,10,11,13-tetrahydrosilino[3,2^−g:5,6^−g]diquinolin-6^−ylium-6(1H)-yl)-benzoate] | 4,800 M^−1cm^−1 | 686 | 711 | – | 0.0143 | –

Compound | ε ([1]; rhodamine derivatives) | λabs ([1]; rhodamine derivatives) [nm] | λem ([1]; rhodamine derivatives) [nm] | Φf ([2]; rhodamine derivatives) | KL-Z ([3]; rhodamine derivatives) | ε ([1]; quinolinyl rhodamines) | λabs ([1]; quinolinyl rhodamines) [nm] | λem ([1]; quinolinyl rhodamines) [nm] | Φf ([2]; quinolinyl rhodamines) | KL-Z ([3]; quinolinyl rhodamines) | λabs [4] [nm]
O=C([O-])c1c(F)c(F)c(F)c(F)c1-c1c2cc3c(cc2[o+]c2cc4c(cc12)CCCN4)NCCC3 [compound 14, 4,5,6,7^−Tetrafluoro-Q-rhodamine] | 118,000 M^−1cm^−1 | 558 | 576 | 0.80 | 8.57 | – | – | – | – | – | –
CN1CCc2cc3c(cc21)[Si](C)(C)c1cc2c(cc1=C3c1c(F)c(F)c(F)c(F)c1C(=O)[O-])CC[N+]=2C [compound 108, SiRF712] | 98,800 M^−1cm^−1 | 712 | 735 | 0.09 | 1.97 | – | – | – | – | – | –
C[Si]1(C)C2=CC(=N)C=CC2=C(c2c(F)c(F)c(F)c(F)c2C(=O)O)c2ccc(N)cc21 [compound 72, 4,5,6,7^−Tetrafluoro-Si-rhodamine 110] | 77,800 M^−1cm^−1 | 611 | 627 | 0.42 | 0.0195 | – | – | – | – | – | –
CCc1cc2c(c3c1=[N+](C)CCC3)[Si](C)(C)c1c(cc3c4c1CCCN4CCC3)C=2c1c(F)c(F)c(F)c(F)c1C(=O)[O-] [compound 31, JF698] | 147,000 M^−1cm^−1 | 698 | 712 | 0.28 | – | – | – | – | – | – | –
